Data taken from ChEMBL document CHEMBL1158811, “Echinamines A and B, first aminated hydroxynaphthazarins from the sea urchin Scaphechinus mirabilis” (J Nat Prod, 2005).

System: Radical scavenging activity
Experiment: Antioxidant activity assessed as DPPH radical scavenging activity
Assay type: functional

EC50 [µM] | Compound
10 | CCc1c(O)c(O)c2c(c1O)C(=O)C(N)=C(O)C2=O [ECHINAMINE B]
10 | CCc1c(O)c(O)c2c(c1O)C(=O)C(O)=C(N)C2=O [ECHINAMINE A]
10 | CCC1=C(O)C(=O)c2c(O)c(O)c(O)c(O)c2C1=O [ECHINOCHROME A]
10 | O=C1C(O)=C(O)C(=O)c2c(O)c(O)cc(O)c21 [SPINOCHROME D]
